In patent US20240108618A1, “KRAS G12C INHIBITOR DOSING REGIMENS” (Eli Lilly and Company, priority 2022, published 2024):
Values joined by “and” are separate entries in the source; they are usually repeats but may differ in a detail not shown here. Equal values may be shown once. Marks after values point to notes of the source that are not given here.

Experiments:
[1] = NCT04956640 Phase 1a clinical pharmacokinetics, monotherapy
From the text: (§1) NCT04956640 includes Phase 1a dose escalation (Part A of NCT04956640, see Table 3) followed by a Phase 1b dose expansion (Parts B to E of NCT04956640, see Table 4). […] Phase 1b dose expansion will include 12 cohorts (See Table 4) to further evaluate safety and clinical activity.

[2] = From the text: A “DLT” is defined as any of the treatment-emergent adverse event (TEAEs), as defined by the National Cancer Institute's Common Terminology Criteria for Adverse Events, version 5.0 (NCI CTCAE v5.0), deemed clinically significant and occurring during the first 21 days of study drug per dose level per patient, unless the adverse event (AE) can be clearly related to the patient's underlying disease, other medical condition, or concomitant medications including any AEs attributed by the Investigator to the combination agent alone. A TEAE is defined as an AE that starts or worsens on or after the date of the first dose of study drug (for example on Study Day 1) through 28 days (+14 days window) after the date of the last dose of study drug or the first date starting new anticancer therapy, whichever is earlier. A Serious TEAE is defined as an TEAE that is grade 3 or higher based on severity grade assignment as defined by the National Cancer Institute's Common Terminology Criteria for Adverse Events, version 5.0 (NCI CTCAE v5.0). A Fatal TEAE is defined as an TEAE that is grade 5 based on severity grade assignment as defined by the National Cancer Institute's Common Terminology Criteria for Adverse Events, version 5.0 (NCI CTCAE v5.0).
as §1

[3] = test system: KRAS G12C-mutant advanced CRC; test: NCT04956640 Phase 1b Cohort C2 (with cetuximab) clinical response (BOR, ORR, DCR, DOR, TTR, % change from baseline, treatment duration); type: in vivo, human; design: key to Best Response: CR: complete response; PR: partial response; uPR: a partial response pending confirmation; SD: stable disease; PD: progressive disease; NE: not estimable; conditions: for Duration of response (DOR) <6 months / Overall response status: Censored / Reason censored: Alive without documented disease progression / Time to response (TTR) <2 months: Phase 1b Cohort C2 responders
Method: The term “BOR” as used herein refers to best overall response based on investigator assessments using RECIST criteria (version 1.1). The minimum duration for BOR of SD is at least 6 weeks after the date of first dose of study drug.
The term “DOR” as used herein refers to duration of response, wherein DOR in months is calculated as the event or censoring date minus the response start date plus 1 day divided by 30.4375.
The term “ORR” as used herein refers to objective response rate, wherein objective response rate is the proportion of patients with BOR of CR or PR. Objective response rate, unconfirmed, is the proportion of patients with BOR of CR, PR, or uPR.
The term “TTR” as used herein refers to time to response, wherein TTR in months is calculated as response start date minus first dose date plus 1 day divided by 30.4375.
as §1

[4] = Phase 1b Cohort C2, Total (N = 11)
[5] = Phase 1b Cohort C2, individual patients, starting dose 100 BID, no prior KRAS G12Ci, listed as compound of Formula I
[6] = Phase 1b Cohort C2, individual patients, starting dose 150 BID, no prior KRAS G12Ci, listed as compound of Formula I
[7] = Phase 1b Cohort C2, starting dose 100 mg BID (N = 6)
[8] = Phase 1b Cohort C2, starting dose 150 mg BID (N = 5)
[9] = starting dose 100 mg BID (N = 6)
[10] = starting dose 150 mg BID (N = 5)

## C=CC(=O)N1CCN2C(=O)c3cc(F)c(-c4ccc(F)c5sc(N)c(C#N)c45)c(Cl)c3OCC[C@H]2C1 (single isomer, unassigned) [Formula I]
[1]; 50 mg BID
  AUC: 634 (53%) ng.h/mL
  Cmax: 144 (45%) ng/ml
  Ctrough-Cmin: 23.8 (90%)^c ng/mL
  t½: 3.03 (41%)^c h
[1]; 100 mg BID
  AUC: 1475 (77%) ng.h/mL
  Cmax: 305 (75%) ng/ml
  Ctrough-Cmin: 44.9 (73%) ng/mL
  Ctrough-Cmin compared with TEC90: > 25 ng/mL
  t½: 3.01 (33%)^b h
[1]; 150 mg BID
  AUC: 1795 (47%) ng.h/mL
  Cmax: 368 (51%) ng/ml
  Ctrough-Cmin: 54.5 (60%) ng/mL
  Ctrough-Cmin compared with TEC90: > 25 ng/mL
  t½: 3.41 (32%) h
[1]; 200 mg BID
  AUC: 1372 (59%) ng.h/mL
  Cmax: 325 (61%) ng/ml
  Ctrough-Cmin: 40.3 (73%) ng/mL
  Ctrough-Cmin compared with TEC90: > 25 ng/mL
  t½: 2.35 (58%) h
[2]; 50 mg BID
  discontinuation due to TRAE: one
[2]; 50 mg BID and 100 mg BID
  rate of immune-related AEs, including hepatoxicity: low rate of immune-related AEs
[2]; 50 mg and 100 mg BID
  dose reductions: no dose reductions
[3]; [4]
  Best overall response (BOR): Complete Response (CR): 0 (0.0) n (%)
  Best overall response (BOR): Not Evaluable (NE): 0 (0.0) n (%)
  Best overall response (BOR): Partial Response (PR): 3 (27.3) n (%)
  Best overall response (BOR): Partial Response, pending confirmation and ongoing (uPR): 2 (18.2) n (%)
  Best overall response (BOR): Progressive Disease (PD): 0 (0.0) n (%)
  Disease control rate (CR + PR + iPR + SD), Number of patients: 11 (100.0) n (%)
  Objective response rate (CR + PR), Number of patients: 3 (27.3) n (%)
  Objective response rate, confirmed and unconfirmed (CR + PR + uPR), Number of patients: 5 (45.5) n (%)
  Patients with best overall response of CR or PR: 3 (27.3) N′ (%)
  Time to response (months), Interquartile range: 0.33 months
  Time to response (months), Median: 1.31 months
[3]; Phase 1b Cohort C2, individual patients, starting dose 100 BID, no prior KRAS G12Ci
  Time (months) of Progressive Disease: 4.4 months
[3]; [5]
  % Change from Baseline in Sum of Diameters for all Target Lesions: −22.0% and −23.4% and −38.9% and −48.7% and −55.4% and −67.6%
  Best Response: SD (3×) and PR Confirmed (3×)
  Time (months) of Partial Response - Confirmed: 1.3 months and 1.6 months and 1.2 months
[3]; [6]
  % Change from Baseline in Sum of Diameters for all Target Lesions: −13.6% and −19.4% and −36.7% and −45.7% and −5.7%
  Best Response: SD (3×) and PR Pending (2×)
  Time (months) of Partial Response - Pending Confirmation and Ongoing: 2.1 months and 1.4 months
[3]; [7]
  Best overall response (BOR): Complete Response (CR): 0 (0.0) n (%)
  Best overall response (BOR): Not Evaluable (NE): 0 (0.0) n (%)
  Best overall response (BOR): Partial Response (PR): 3 (50.0) n (%)
  Best overall response (BOR): Partial Response, pending confirmation and ongoing (uPR): 0 (0.0) n (%)
  Best overall response (BOR): Progressive Disease (PD): 0 (0.0) n (%)
  Disease control rate (CR + PR + iPR + SD), Number of patients: 6 (100.0) n (%)
  Objective response rate (CR + PR), Number of patients: 3 (50.0) n (%)
  Objective response rate, confirmed and unconfirmed (CR + PR + uPR), Number of patients: 3 (50.0) n (%)
  Patients with best overall response of CR or PR: 3 (50.0) N′ (%)
  Time to response (months), Interquartile range: 0.33 months
  Time to response (months), Median: 1.31 months
[3]; [8]
  Best overall response (BOR): Complete Response (CR): 0 (0.0) n (%)
  Best overall response (BOR): Not Evaluable (NE): 0 (0.0) n (%)
  Best overall response (BOR): Partial Response (PR): 0 (0.0) n (%)
  Best overall response (BOR): Partial Response, pending confirmation and ongoing (uPR): 2 (40.0) n (%)
  Best overall response (BOR): Progressive Disease (PD): 0 (0.0) n (%)
  Disease control rate (CR + PR + iPR + SD), Number of patients: 5 (100.0) n (%)
  Objective response rate (CR + PR), Number of patients: 0 (0.0) n (%)
  Objective response rate, confirmed and unconfirmed (CR + PR + uPR), Number of patients: 2 (40.0) n (%)
  Patients with best overall response of CR or PR: 0 (0.0) N′ (%)
[3]; Total (N = 11)
  Duration of response (DOR) <6 months: 3 (100.0) n (%)
  Overall response status: Censored: 3 (100.0) n (%)
  Reason censored: Alive without documented disease progression: 3 (100.0) n (%)
  Time to response (TTR) <2 months: 3 (100.0) n (%)
[3]; [9]
  Duration of response (DOR) <6 months: 3 (100.0) n (%)
  Overall response status: Censored: 3 (100.0) n (%)
  Reason censored: Alive without documented disease progression: 3 (100.0) n (%)
  Time to response (TTR) <2 months: 3 (100.0) n (%)
[3]; [10]
  Duration of response (DOR) <6 months: 0 (NE) n (%)
  Overall response status: Censored: 0 (NE) n (%)
  Reason censored: Alive without documented disease progression: 0 (NE) n (%)
  Time to response (TTR) <2 months: 0 (NE) n (%)
[3]; human, in vivo
  median time to response: 1.3 month
